According to patent US20170150719A1, “FUNGICIDAL PYRAZOLES AND THEIR MIXTURES” (E I DU PONT DE NEMOURS AND COMPANY, priority 2010, published 2017):

Columns and labels:
[1] = test system: Puccinia recondita f. sp. tritici; experiment: Test H: wheat leaf rust, preventive spray on wheat seedlings, visual disease rating; conditions: read-out: Test H rating (disease control), wheat leaf rust, sprayed the day before inoculation; 100 = 100% disease control, 0 = no disease control
[2] = test system: Blumeria graminis f. sp. tritici; experiment: Test K (K1-K5): wheat powdery mildew, Compound 81 alone and in mixtures, observed and Colby expected control; assay type: in vivo; conditions: for Test K4 Obsd, disease control rating / Test K5 Obsd, disease control rating: wheat powdery mildew
Septoria tritici [3] = experiment: Test F: wheat leaf blotch, preventive spray on wheat seedlings, visual disease rating; assay type: in vivo; conditions: Zymoseptoria tritici, 100 = 100% disease control, 0 = no disease control relative to the controls
From the text: (§1) A hyphen (-) indicates no test results.

[4] = test system: Puccinia recondita f sp. tritici; experiment: Test L (L1-L5): wheat leaf rust, Compound 81 alone and in mixtures, observed and Colby expected control; assay type: in vivo; conditions: for Test L4 Obsd, disease control rating / Test L5 Obsd, disease control rating: wheat leaf rust
[5] = test system: Puccinia recondita f. sp. tritici; experiment: Test G: wheat leaf rust, spray after inoculation (curative) on wheat seedlings, visual disease rating; assay type: in vivo; conditions: sprayed after inoculation, 100 = 100% disease control, 0 = no disease control
From the text: as §1

Phytophthora infestans = experiment: whole plant or invertebrate; assay type: in vivo; conditions: Phytophthora infestans, in Solanum lycopersicum, read-out: Test C rating (disease control)
Septoria tritici [6] = experiment: Test M (M1-M5): wheat leaf blotch, Compound 81 alone and in mixtures, observed and Colby expected control; assay type: in vivo
Alternaria solani = experiment: Test B: tomato early blight, preventive spray on tomato seedlings, visual disease rating; conditions: Alternaria solani, in Solanum lycopersicum, read-out: Test B rating (disease control)
[7] = test system: Blumeria graminis f. sp. tritici; experiment: Test I: wheat powdery mildew, preventive spray on wheat seedlings, visual disease rating; conditions: Blumeria graminis, in Triticum aestivum, read-out: Test I rating (disease control), wheat powdery mildew; 100 = 100% disease control, 0 = no disease control relative to the controls

Question: What does the source list for Cc1nn(C)c(Nc2c(F)cc(Cl)cc2F)c1-c1ccc(F)cc1Cl [Compound 81, N-(4-chloro-2,6-difluorophenyl)-4-(2-chloro-4-fluorophenyl)-1,3-dimethyl-1H-pyrazole-5-amine]?
Answer: pest or weed control at 200 µg/mL [1]: 100%; Test K1 Obsd ([2]; Compound 81 1 ppm alone): 0%; Test K2 Obsd ([2]; Compound 81 1 ppm alone): 91%; Test K3 Obsd ([2]; Compound 81 1 ppm alone): 0%; Test K1 Obsd ([2]; Compound 81 2 ppm alone): 87%; Test K2 Obsd ([2]; Compound 81 2 ppm alone): 91%; Test K3 Obsd ([2]; Compound 81 2 ppm alone): 0%; Test K1 Obsd ([2]; Compound 81 5 ppm alone): 99%; Test K2 Obsd ([2]; Compound 81 5 ppm alone): 91%; Test K3 Obsd ([2]; Compound 81 5 ppm alone): 90%; Test K1 Obsd ([2]; Compound 81 10 ppm alone): 100%; Test K2 Obsd ([2]; Compound 81 10 ppm alone): 100%; Test K3 Obsd ([2]; Compound 81 10 ppm alone): 99%; Test K4 Obsd, disease control rating ([2]; Compound 81 1 ppm alone): 0%; Test K5 Obsd, disease control rating ([2]; Compound 81 1 ppm alone): 0%; Test K4 Obsd, disease control rating ([2]; Compound 81 2 ppm alone): 0%; Test K5 Obsd, disease control rating ([2]; Compound 81 2 ppm alone): 0%; Test K4 Obsd, disease control rating ([2]; Compound 81 5 ppm alone): 0%; Test K5 Obsd, disease control rating ([2]; Compound 81 5 ppm alone): 0%; Test K5 Obsd, disease control rating ([2]; Compound 81 10 ppm alone): 100%; pest or weed control at 200 µg/mL (Septoria tritici [3]): 100%; Test L1 Obsd ([4]; Compound 81 1 ppm alone): 88%; Test L2 Obsd ([4]; Compound 81 1 ppm alone): 9%; Test L3 Obsd ([4]; Compound 81 1 ppm alone): 9%; Test L1 Obsd ([4]; Compound 81 2 ppm alone): 68%; Test L2 Obsd ([4]; Compound 81 2 ppm alone): 27%; Test L3 Obsd ([4]; Compound 81 2 ppm alone): 9%; Test L1 Obsd ([4]; Compound 81 5 ppm alone): 91%; Test L2 Obsd ([4]; Compound 81 5 ppm alone): 74%; Test L3 Obsd ([4]; Compound 81 5 ppm alone): 41%; Test L1 Obsd ([4]; Compound 81 10 ppm alone): 98%; Test L2 Obsd ([4]; Compound 81 10 ppm alone): 91%; Test L3 Obsd ([4]; Compound 81 10 ppm alone): 88%; Test L4 Obsd, disease control rating ([4]; Compound 81 1 ppm alone): 0%; Test L5 Obsd, disease control rating ([4]; Compound 81 1 ppm alone): 18%; Test L4 Obsd, disease control rating ([4]; Compound 81 2 ppm alone): 27%; Test L5 Obsd, disease control rating ([4]; Compound 81 2 ppm alone): 27%; Test L4 Obsd, disease control rating ([4]; Compound 81 5 ppm alone): 68%; Test L5 Obsd, disease control rating ([4]; Compound 81 5 ppm alone): 55%; Test L4 Obsd, disease control rating ([4]; Compound 81 10 ppm alone): 88%; Test L5 Obsd, disease control rating ([4]; Compound 81 10 ppm alone): 82%; pest or weed control at 200 µg/mL [5]: 99%; pest or weed control at 200 µg/mL (Phytophthora infestans): 0%; Test M1 Obsd, disease control rating (Septoria tritici [6]; Compound 81 0.01 ppm alone): 0%; Test M2 Obsd, disease control rating (Septoria tritici [6]; Compound 81 0.01 ppm alone): 0%; Test M1 Obsd, disease control rating (Septoria tritici [6]; Compound 81 0.1 ppm alone): 0%; Test M2 Obsd, disease control rating (Septoria tritici [6]; Compound 81 0.1 ppm alone): 0%; Test M1 Obsd, disease control rating (Septoria tritici [6]; Compound 81 1 ppm alone): 86%; Test M2 Obsd, disease control rating (Septoria tritici [6]; Compound 81 1 ppm alone): 95%; Test M1 Obsd, disease control rating (Septoria tritici [6]; Compound 81 10 ppm alone): 100%; Test M2 Obsd, disease control rating (Septoria tritici [6]; Compound 81 10 ppm alone): 100%; Test M3 Obsd disease control rating (Septoria tritici [6]; Compound 81 alone 0.01 ppm): 0%; Test M4 Obsd disease control rating (Septoria tritici [6]; Compound 81 alone 0.01 ppm): 0%; Test M5 Obsd disease control rating (Septoria tritici [6]; Compound 81 alone 0.01 ppm): 0%; Test M3 Obsd disease control rating (Septoria tritici [6]; Compound 81 alone 0.1 ppm): 0%; Test M4 Obsd disease control rating (Septoria tritici [6]; Compound 81 alone 0.1 ppm): 23%; Test M5 Obsd disease control rating (Septoria tritici [6]; Compound 81 alone 0.1 ppm): 3%; Test M3 Obsd disease control rating (Septoria tritici [6]; Compound 81 alone 1 ppm): 52%; Test M4 Obsd disease control rating (Septoria tritici [6]; Compound 81 alone 1 ppm): 66%; Test M5 Obsd disease control rating (Septoria tritici [6]; Compound 81 alone 1 ppm): 90%; Test M3 Obsd disease control rating (Septoria tritici [6]; Compound 81 alone 10 ppm): 100%; Test M4 Obsd disease control rating (Septoria tritici [6]; Compound 81 alone 10 ppm): 100%; Test M5 Obsd disease control rating (Septoria tritici [6]; Compound 81 alone 10 ppm): 100%; pest or weed control at 200 µg/mL (Alternaria solani): 99%; pest or weed control at 200 µg/mL [7]: 100%
